We go through one molecule from US20130079526A1, “Synthesis of Chirally Purified Substituted Benzothiazole Diamines” (priority 2010, published 2013).

For data set [1], the system named is rodents.
Data set [2] has as its system rodents. The note with it: single oral dose, and above; cited from earlier work.
Another data set has as its system dogs. Particulars: single oral dose, and above; cited from earlier work.
The subject of the next data set is human subjects. The note with it: cited from earlier work.
The subject of the next data set is humans. Particulars: dose as low as; cited from earlier work.
A further data set relates to monkeys. The note with it: single oral dose; cited from earlier work.

Regarding `CCCN[C@H]1CCc2nc(N)sc2C1` [pramipexole, (6S)-4,5,6,7-tetrahydro-N6-propyl-2,6-benzothiazole-diamine], the “equivalent human dose of the rodent lethal dose” value in the data set with rodents [1] (human equivalent) lay within 7 to 12 mg/kg. Moreover, in the data set on rodents [1] (rodents, in vivo), the “equivalent human dose of the rodent lethal dose for a 70 kg individual” value lay in the range of 500 to 850 mg. In addition, the “dose at which death occurred” value in the data set on rodents [2] is 70 to 105 mg/kg. For the same molecule, the “dose at which vomiting occurred” value in the data set on dogs is on record as at least 0.0007 mg/kg. For the same molecule, the “initial single dose not tolerated” value in the data set on human subjects is reported as “greater than 0.20 mg”. Besides, in the data set on humans, the “dose shown to cause somnolence” value is 1.5 mg. In addition, the “dose at which major excitation was displayed” value in the data set on monkeys was 3.5 mg/kg.
